# Assay results as given in patent US12139498B1, “Positive allosteric modulators of the muscarinic acetylcholine receptor M4” (Vanderbilt University, priority 2023, dated 2024).
# Where two headings read alike, the source gives them in different places.
# Experiments:
# [1] = system: 68 primary molecular targets; test: Eurofins LeadProfilingScreen off-target panel (binding); settings: 10 μM (binding), all targets except human muscarinic 2
# Description: Compound 70 was tested using Eurofins LeadProfilingScreen®, which detects potential off-target activity and determines relative selectivity. The screen includes 68 primary molecular targets, including several CNS targets recommended by the EMEA (European Medicines Evaluation Agency) to evaluate drug dependence potential.
# [2] = MDCK-MDR1 permeability / efflux; type: in vitro ADME; settings: dog, MDCK-MDR1
# Description: (§1) Compound 70 was tested in several in in vitro assays to investigate both metabolism and pharmacokinetics. These assays may be performed according to known methods as generally described in the following references: Conde-Ceide et al. ACS Med. Chem. Lett. 2015, 6, 716-720; Morris et al. J. Med. Chem. 2014, 57, 10192-10197; and Bubser et al. ACS Chem. Neurosci. 2014, 5, 920-942.
# MDCK-MDR1 = MDCK-MDR1 permeability / efflux; type: in vitro ADME; settings: efflux ratio
# Description: as §1
# [3] = Fraction unbound in rat plasma; type: in vitro ADME; settings: read-out: Rat Fu (plasma)
# Description: as §1
# [4] = Fraction unbound in dog plasma; type: in vitro ADME; settings: read-out: Dog Fu (plasma)
# Description: as §1
# P450 2D6 = P450 2D6 (Homo sapiens, UniProt P10635); test: P450 2D6 inhibition; type: in vitro ADME
# Sequence of P450 2D6 (P10635 whole entry): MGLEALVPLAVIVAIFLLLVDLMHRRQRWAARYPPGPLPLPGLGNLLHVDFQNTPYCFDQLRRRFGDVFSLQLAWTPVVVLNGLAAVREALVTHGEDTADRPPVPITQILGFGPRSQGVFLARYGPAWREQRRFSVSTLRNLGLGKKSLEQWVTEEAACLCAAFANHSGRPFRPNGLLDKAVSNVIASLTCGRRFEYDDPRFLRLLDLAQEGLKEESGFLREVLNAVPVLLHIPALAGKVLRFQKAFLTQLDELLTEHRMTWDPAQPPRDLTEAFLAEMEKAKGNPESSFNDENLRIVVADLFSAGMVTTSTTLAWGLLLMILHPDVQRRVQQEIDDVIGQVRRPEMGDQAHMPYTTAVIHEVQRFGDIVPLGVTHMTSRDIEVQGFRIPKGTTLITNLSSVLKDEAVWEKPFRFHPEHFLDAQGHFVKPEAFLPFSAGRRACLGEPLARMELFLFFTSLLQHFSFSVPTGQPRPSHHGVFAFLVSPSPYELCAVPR
# Description: as §1
# male Sprague-Dawley rats = test: Amphetamine-induced hyperlocomotion in rats; settings: 100 mg/kg i.p., amphetamine 0.25 mg/kg s.c., p<0.001
# Human M4 = molecular target: T1, Human M4 (Homo sapiens, UniProt P08173); test: Cellular cAMP Gi HTRF assay (agonist and potentiator modes); type: cell-based; design: expressed in transfected cells; host or cells: CHO cells stably expressing human M4; settings: n = 2
# T1 sequence (P08173 1-479): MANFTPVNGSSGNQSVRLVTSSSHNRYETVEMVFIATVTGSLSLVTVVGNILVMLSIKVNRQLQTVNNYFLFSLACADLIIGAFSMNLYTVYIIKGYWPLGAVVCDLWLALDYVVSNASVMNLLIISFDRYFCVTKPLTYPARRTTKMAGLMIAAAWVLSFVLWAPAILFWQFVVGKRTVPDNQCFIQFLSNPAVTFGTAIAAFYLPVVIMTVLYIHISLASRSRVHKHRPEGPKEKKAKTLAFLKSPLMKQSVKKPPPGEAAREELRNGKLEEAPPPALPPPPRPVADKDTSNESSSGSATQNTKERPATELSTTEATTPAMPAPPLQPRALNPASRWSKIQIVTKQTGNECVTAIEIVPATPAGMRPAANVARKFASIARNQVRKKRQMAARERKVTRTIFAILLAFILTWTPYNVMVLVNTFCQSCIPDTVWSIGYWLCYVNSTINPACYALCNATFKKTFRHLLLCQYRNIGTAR
# From the text: Activation of the M4 receptor leads to the inhibition of cAMP production by coupling to Go proteins. To measure the level of CAMP inhibition by M4 allosteric modulators, a Homogeneous Time-Resolved Fluorescence (HTRF®) CAMP assay was employed using CHO cells stably expressing human or rat M4 receptors. The HTRF CAMP assay is a Time-Resolved Resonance Energy Transfer (TR-FRET) competitive immunoassay. Endogenous intracellular CAMP generated by cells competes with Europium cryptate-labeled cAMP (Europium donor, emission […]) for the binding to a cAMP antibody labeled with d2 (d2-acceptor, emission […]). Thus, the fluorescence emission ratio (665 nm/620 nm) is inversely proportional to the CAMP amount in the cells. Compound-mediated M4 activation results in an increase in HTRF ratio (665 nm/620 nm), indicative of a decrease in intracellular cAMP level. To monitor agonist activity, compounds were added to the M4 cells in the presence of an EC80 concentration of forskolin (adenylyl cyclase activator) which induces a submaximal intracellular cAMP level. To assess potentiator activity, compounds were added to the M4 cells with an EC50 concentration of forskolin in the presence of an EC20 concentration of acetylcholine. This functional assay allows determination of the potency and efficacy of compounds directly activating or potentiating the Gi/o-coupled M4 receptor; representative data are shown in Table 3.
# Functional agonist and potentiator activities of compounds were determined by measuring cAMP levels in Chinese Hamster Ovary (CHO) cells stably expressing human or rat M4 muscarinic receptors using an HTRF CAMP Gi/o kit. Cells were maintained in F12 medium containing 10% FBS, 20 mM HEPES, 1× Antibiotic/Antimycotic, and G418 (500 μg/ml) in 37° C. humidified incubators in the presence of 5% CO2. The day before assay, the cells were trypsinized and resuspended in plating medium (growth medium without G418). The cells were plated to white, solid, flat-bottomed, 384 well plates at densities of 4,000 and 6,000 cells/10 μL/well, of human M4 and rat M4 cells, respectively. The cell plates were spun at 100×g for 1 min, then immediately placed in a 37° C. incubator in the presence of 5% CO2 overnight.
# The next day, reagents were freshly diluted at a 2× concentration in assay buffer using F12 basal medium or stimulation buffer. All assay buffers contained 500 μM IBMX to block cAMP degradation. Activation of M4 by compounds was examined in cells stimulated with an EC80 concentration of forskolin to induce submaximal intracellular cAMP levels. Forskolin EC80 concentrations were determined from forskolin concentration response curves (CRCs) and ranged from 1.5 to 2.5 μM. […]
smiles,measurement,setting,value
"Cc1c(N2CCc3nc(C4(F)CC4)sc3C2)nc2nn(C)c(=O)n2c1C [Compound 70, 7-(2-(1-fluorocyclopropyl)-6,7-dihydrothiazolo[5,4-c]pyridin-5(4H)-yl)-2,5,6-trimethyl-[1,2,4]triazolo[4,3-a]pyrimidin-3(2H)-one]",inhibition of each target in the LeadProfilingScreen,[1],< 50%
same,Papp A→B,[2],36.7 ×10⁻⁶ cm/s
same,MDCK-MDR1 ER,MDCK-MDR1,0.9 (Papp A→ B:
same,fraction unbound,[3],0.267
same,fraction unbound,[4],0.232
same,IC50,P450 2D6,> 30000 nM
same,percent reversal of amphetamine-induced hyperlocomotion,male Sprague-Dawley rats,61.1%
same,hM4_cAMP Activity Agonist % ACh Max,"Human M4; agonist mode, EC80 forskolin, no acetylcholine",81 % ACh Max
same,EC50,"Human M4; agonist mode, EC80 forskolin, no acetylcholine, read-out: hM4_cAMP Activity Agonist EC50",19 nM
same,hM4_cAMP Activity PAM % ACh Max,"Human M4; potentiator mode, forskolin plus EC20 acetylcholine",74 % ACh Max
same,EC50,"Human M4; potentiator mode, forskolin plus EC20 acetylcholine, read-out: hM4_cAMP Activity PAM EC50",11 nM
